From patent publication US11414401B2, “Substituted 2-anilinopyrimidine derivatives as EGFR modulators” (Beta Pharma, Inc., priority 2014, dated 2022)
Read-outs that look alike come from different tables or passages of the source.

What was measured:
[1] = tested on: subcutaneously-implanted H1975 human non-small cell lung carcinoma xenographs (L858R/T790M double mutation); details: po, 25 mg/kg, 336 h
[2] = tested on: H1975 (double mutant) cells; test: Cell proliferation assay (Alamar Blue, 72 h), H1975; type: cell-based; details: Homo sapiens, read-out: H1975 IC50
Protocol: (§1) Cell Culture. […] The cell monolayer was dispersed by 5 minute exposure to 0.25% Trypsin/EDTA solution (Life Technologies) and the solution was neutralized with a fresh growth medium. […] The cells maintained normal morphology and growth characteristics during the period of the study. Cell Proliferation Assay. Dispersed cells were pooled by centrifugation (200×g, 8 min.) and resuspended in a fresh medium to a concentration of 1.00 E+04 cells/ml. 200 μL of the cell suspension was added to each well (2,000 cells/well) of a black-walled 96 well plate and the cells were allowed to attach overnight under normal culture conditions. […] The final DMSO concentration in the well was 0.5% v/v. Vehicle, non-treated, and cell-free wells were also included in the assay. The cells were cultured under normal conditions for 72 hours with daily visual inspection. Cell proliferation was measured using the dye Alamar Blue (resazurin). Resazurin is reduced by cellular enzymes to resorufin, which is fluorescent (544 nm excitation, 612 nm emission). Fluorescence intensity was proportional to cell number. A resazurin stock solution was prepared in a phosphate-buffered saline (PBS) to a stock concentration of 440 μM. The resazurin stock solution (40 μL each) was added to each well at hour 67 of the 72 hour incubation period. The plate was returned to normal culture conditions and fluorescence measurements were collected using a Cytation 3 multimode plate reader (Biotek) at 72 hours. Data Analysis. Fluorescence measurements were normalized against cell-free (background) readings and the total growth over 72 hour time period was determined versus the average of the vehicle control wells. Average and standard deviation values were determined for each condition (n=3).

A431 (wild type) cells = test: Cell proliferation assay (Alamar Blue, 72 h), A431; type: cell-based; details: Homo sapiens, read-out: A431 IC50
Protocol: as §1

[3] = tested on: subcutaneously-implanted H1975 human non-small cell lung carcinoma xenographs (L858R/T790M double mutation); test: H1975 mouse xenograft model, tumor growth inhibition; details: for tumor growth delay: P<0.05; for % tumor growth inhibition (% TGI): 100 mg/kg oral
[4] = tested on: subcutaneously-implanted HCC827 human non-small cell lung carcinoma xenographs (delE746-A750 activating mutation); test: HCC827 mouse xenograft model, tumor growth inhibition; type: in vivo, female nude mice; details: 6.25 mg/kg orally once a day for 14 days (days 13-26)
Excerpt: Antitumor Activity of Example 1 in the HCC827 Mouse Xenograft Model.

[5] = NCI-H1975, H1975 (double mutant) cells, 72 h proliferation
[6] = A-431, A431 (wild type) cells, 72 h proliferation
[7] = 6.25 mg/kg orally once a day for 14 days (days 6-19)
[8] = 12.5 mg/kg orally once a day for 14 days (days 6-19)
[9] = 25 mg/kg orally once a day for 14 days (days 6-19)
[10] = all doses (6.25, 12.5 and 25 mg/kg) orally once a day for 14 days
[11] = 100 mg/kg orally once a day for 14 days (days 7-20)

## C=CC(=O)Nc1cc(Nc2nccc(-c3cn(C)c4ccccc34)n2)c(OC)cc1OCCN(C)C [Example 1, N-(2-(2-(Dimethylamino)ethoxy)-4-methoxy-5-((4-(1-methyl-1H-indol-3-yl)pyrimidin-2-yl)amino)phenyl)acrylamide]
[1]
  tumor free survivors: 10%
[2]; [5]
  IC50: < 100 nM
A431 (wild type) cells; [6]
  IC50: > 1000 nM
[3]; [7]
  median time to evaluation size: 28.9 days
  tumor growth delay: 14 days
[3]; [8]
  median time to evaluation size: 31.6 days
  tumor growth delay: 16.7 days
[3]; [9]
  incidence of complete regressions: 100%
  median time to evaluation size: 34.3 days
  tumor growth delay: 19.3 days
[3]; [10]
  tolerability: well tolerated
  treatment-related mortality: no treatment-related mortality
[4]
  incidence of complete tumor regression at the completion of dosing: 100%
  median time to evaluation size: 61.5 days
  tolerability: well tolerated
  treatment-related mortality: no treatment-related mortality
[4]; P<0.05
  tumor growth delay: 33.2 days

## C=CC(=O)Nc1cc(Nc2nccc(-c3cn(C)c4ccccc34)n2)c(OC)cc1SCCN(C)C [Example 2, N-(2-((2-(Dimethylamino)ethyl)thio)-4-methoxy-5-((4-(1-methyl-1H-indol-3-yl)pyrimidin-2-yl)amino)phenyl)acrylamide]
[2]; [5]
  IC50: < 100 nM
A431 (wild type) cells; [6]
  IC50: > 1000 nM
[3]; from median tumor burdens on day 10
  % tumor growth inhibition (% TGI): 110.5%
[3]; from median tumor burdens on day 14
  % tumor growth inhibition (% TGI): 116.6%
[3]; from median tumor burdens on day 17
  % tumor growth inhibition (% TGI): 116.6%
[3]; [11]
  incidence of complete tumor regression: 100%
  mice remaining tumor free (TFS) at the completion of the study: 12.5%
  time to evaluation size (750 mm^3): 39.6 days
  tolerability: well tolerated
  tumor growth delay (T-C): 22.2 days

## C=CC(=O)Nc1cc(Nc2nccc(-c3cn(C)c4ccccc34)n2)c(OC)cc1OC [Example 3, N-(2,4-Dimethoxy-5-((4-(1-methyl-1H-indol-yl)pyrimidin-2-yl)amino)-phenyl)acrylamide]
[2]; [5]
  IC50: 100 to 1000 nM
A431 (wild type) cells; [6]
  IC50: > 1000 nM

## C=CC(=O)Nc1cc(Nc2nccc(-c3cn(C)c4ccccc34)n2)c(OC)cc1CCCN(C)C [Example 4, N-(2-(3-(Dimethylamino)propyl)-4-methoxy-5-((4-(1-methyl-1H-indol-3-yl)pyrimidin-2-yl)amino)phenyl)acrylamide]
[2]; [5]
  IC50: < 100 nM
A431 (wild type) cells; [6]
  IC50: > 1000 nM

## C=CC(=O)Nc1cc(Nc2nccc(-c3c4ccccc4nn3C)n2)c(OC)cc1OCCN(C)C [Example 5, N-(2-(2-(Dimethylamino)ethoxy)-4-methoxy-5-((4-(2-methyl-2H-indazol-3-yl)pyrimidin-2-yl)amino)phenyl)acrylamide]
[2]; [5]
  IC50: 100 to 1000 nM
A431 (wild type) cells; [6]
  IC50: 100 to 1000 nM

## C=CC(=O)Nc1cc(Nc2nccc(-c3c(C)n(C)c4ccccc34)n2)c(OC)cc1OCCN(C)C [Example 8, N-(5-((4-(1,2-Dimethyl-1H-indol-3-yl)pyrimidin-2-yl)amino)-2-(2-(dimethylamino)ethoxy)-4-methoxyphenyl)acrylamide]
[2]; [5]
  IC50: < 100 nM
A431 (wild type) cells; [6]
  IC50: 100 to 1000 nM

## C=CC(=O)Nc1cc(Nc2nccc(-c3cnn4ccccc34)n2)c(OC)cc1OCCN(C)C [Example 9, N-(2-(2-(Dimethylamino)ethoxy)-4-methoxy-5-((4-(pyrazolo[1,5-a]pyridin-3-yl)pyrimidin-2-yl)amino)phenyl)acrylamide]
[2]; [5]
  IC50: < 100 nM
A431 (wild type) cells; [6]
  IC50: > 1000 nM

## C=CC(=O)Nc1cc(Nc2nccc(-c3nn(C)c4ccccc34)n2)c(OC)cc1OCCN(C)C [Example 10, N-(2-(2-(Dimethylamino)ethoxy)-4-methoxy-5-((4-(1-methyl-1H-indazol-3-yl)pyrimidin-2-yl)amino)phenyl)acrylamide]
[2]; [5]
  IC50: < 100 nM
A431 (wild type) cells; [6]
  IC50: 100 to 1000 nM

## C=CC(=O)Nc1cc(Nc2nccc(-c3cn(CCF)c4ccccc34)n2)c(OC)cc1OCCN(C)C [Example 11, N-(2-(2-(Dimethylamino)ethoxy)-5-((4-(1-(2-fluoroethyl)-1H-indolyl-3-yl)pyrimidin-2-yl)amino)-4-methoxyphenyl)acrylamide]
[2]; NCI-H1975, 72 h
  IC50: < 100 nM
A431 (wild type) cells; A-431, 72 h
  IC50: 100 to 1000 nM
